Key:
Assay in all cases: relative viability (nuclei count vs DMSO), 5 days (fraction); higher = more cells survive
[1] = tested on: 201T
Procedure, shortened: (§1)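 Medians of duplicate plates are given as relative viability. That measure is the nuclei count in treated wells divided by the count in vehicle wells. Counts were taken on 4× images of lung cancer cell lines in 1536-well plates, 5 days after pin-tool dosing the day after seeding with one drug alone or a fixed anchor-drug dose plus five library-drug doses (not always all listed) in √10 steps.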

[2] = tested on: COR-L 105
Procedure, shortened: as §1

[3] = tested on: COR-L23
Procedure, shortened: as §1

[4] = tested on: EMC-BAC-2
Procedure, shortened: as §1

[5] = tested on: HCC-15
Procedure, shortened: as §1

[6] = tested on: HCC-366
Procedure, shortened: as §1

[7] = tested on: LC-2-ad
Procedure, shortened: as §1

[8] = tested on: NCI-H1395
Procedure, shortened: as §1

[9] = tested on: NCI-H1437
Procedure, shortened: as §1

[10] = tested on: NCI-H1755
Procedure, shortened: as §1

[11] = tested on: NCI-H1793
Procedure, shortened: as §1

[12] = tested on: NCI-H1915
Procedure, shortened: as §1

[13] = tested on: NCI-H2009
Procedure, shortened: as §1

[14] = tested on: NCI-H2023
Procedure, shortened: as §1

[15] = tested on: NCI-H2342
Procedure, shortened: as §1

[16] = tested on: NCI-H2347
Procedure, shortened: as §1

[17] = tested on: NCI-H23
Procedure, shortened: as §1

[18] = tested on: NCI-H358
Procedure, shortened: as §1

[19] = tested on: NCI-H650
Procedure, shortened: as §1

[20] = tested on: PC-14
Procedure, shortened: as §1

[21] = tested on: SK-MES-1
Procedure, shortened: as §1

Compound `CN1CCN(CCOc2cc(OC3CCOCC3)c3c(Nc4c(Cl)ccc5c4OCO5)ncnc3c2)CC1` [Saracatinib] + COc1cc2c(Oc3ccc(NC(=O)C4(C(=O)Nc5ccc(F)cc5)CC4)cc3F)ccnc2cc1OCCCN1CCOCC1 [Foretinib] (partner 0.25 µM) has a relative viability ([1]; first compound 0.02 µM) of 1.16, a relative viability ([1]; first compound 0.2 µM) of 0.752 and a relative viability ([1]; first compound 0.6325 µM) of 1. For the same compound, the relative viability ([1]; first compound 2 µM) was 0.693, the relative viability ([2]; first compound 0.02 µM) was 0.973 and the relative viability ([2]; first compound 0.2 µM) was 1.04. It also gave a relative viability ([2]; first compound 0.6325 µM) of 1.09, a relative viability ([2]; first compound 2 µM) of 0.816 and a relative viability ([3]; first compound 0.02 µM) of 0.905. For the same compound, the relative viability ([3]; first compound 0.2 µM) was 0.917, the relative viability ([3]; first compound 0.6325 µM) was 0.87 and the relative viability ([3]; first compound 2 µM) was 0.886. For the same compound, the relative viability ([4]; first compound 0.02 µM) was 1.01, the relative viability ([4]; first compound 0.2 µM) was 0.8 and the relative viability ([4]; first compound 0.6325 µM) was 1.01. For the same compound, the relative viability ([4]; first compound 2 µM) was 0.704, the relative viability ([5]; first compound 0.02 µM) was 1.14 and the relative viability ([5]; first compound 0.2 µM) was 0.975. It also gave a relative viability ([5]; first compound 0.6325 µM) of 1.12, a relative viability ([5]; first compound 2 µM) of 1.05 and a relative viability ([6]; first compound 0.02 µM) of 0.896. The relative viability ([6]; first compound 0.6325 µM) was 0.844, the relative viability ([6]; first compound 2 µM) was 0.531 and the relative viability ([7]; first compound 0.02 µM) was 0.85. For the same compound, the relative viability ([7]; first compound 0.2 µM) was 0.812, the relative viability ([7]; first compound 0.6325 µM) was 0.934 and the relative viability ([7]; first compound 2 µM) was 0.658. For the same compound, the relative viability ([8]; first compound 0.02 µM) was 1.08, the relative viability ([8]; first compound 0.2 µM) was 0.908 and the relative viability ([8]; first compound 0.6325 µM) was 1.03. It also gave a relative viability ([8]; first compound 2 µM) of 0.856, a relative viability ([9]; first compound 0.02 µM) of 1.27 and a relative viability ([9]; first compound 0.2 µM) of 1.22. It also gave a relative viability ([9]; first compound 0.6325 µM) of 1.3, a relative viability ([9]; first compound 2 µM) of 1.3 and a relative viability ([10]; first compound 0.02 µM) of 0.936. It also gave a relative viability ([10]; first compound 0.2 µM) of 0.849, a relative viability ([10]; first compound 0.6325 µM) of 0.821 and a relative viability ([10]; first compound 2 µM) of 0.792. For the same compound, the relative viability ([11]; first compound 0.02 µM) was 0.685, the relative viability ([11]; first compound 0.6325 µM) was 0.777 and the relative viability ([11]; first compound 2 µM) was 0.454. For the same compound, the relative viability ([12]; first compound 0.02 µM) was 1.05, the relative viability ([12]; first compound 0.2 µM) was 1.05 and the relative viability ([12]; first compound 0.6325 µM) was 1.12. It also gave a relative viability ([12]; first compound 2 µM) of 0.96, a relative viability ([13]; first compound 0.02 µM) of 1.22 and a relative viability ([13]; first compound 0.2 µM) of 1.14. It also gave a relative viability ([13]; first compound 0.6325 µM) of 0.951, a relative viability ([13]; first compound 2 µM) of 1.03 and a relative viability ([14]; first compound 0.02 µM) of 0.953. The relative viability ([14]; first compound 0.2 µM) was 0.873, the relative viability ([14]; first compound 0.6325 µM) was 0.656 and the relative viability ([14]; first compound 2 µM) was 0.531. For the same compound, the relative viability ([15]; first compound 0.02 µM) was 0.84, the relative viability ([15]; first compound 0.2 µM) was 0.856 and the relative viability ([15]; first compound 0.6325 µM) was 1.11. For the same compound, the relative viability ([15]; first compound 2 µM) was 0.925, the relative viability ([16]; first compound 0.02 µM) was 1.32 and the relative viability ([16]; first compound 0.2 µM) was 0.852. It also gave a relative viability ([16]; first compound 0.6325 µM) of 0.469, a relative viability ([16]; first compound 2 µM) of 0.712 and a relative viability ([17]; first compound 0.02 µM) of 0.825. The relative viability ([17]; first compound 0.2 µM) was 0.815, the relative viability ([17]; first compound 0.6325 µM) was 1 and the relative viability ([17]; first compound 2 µM) was 0.545. It also gave a relative viability ([18]; first compound 0.02 µM) of 0.761, a relative viability ([18]; first compound 0.2 µM) of 0.534 and a relative viability ([18]; first compound 0.6325 µM) of 0.421. The relative viability ([18]; first compound 2 µM) was 0.213, the relative viability ([19]; first compound 0.02 µM) was 0.996 and the relative viability ([19]; first compound 0.2 µM) was 0.922. The relative viability ([19]; first compound 0.6325 µM) was 1.03, the relative viability ([19]; first compound 2 µM) was 1.03 and the relative viability ([20]; first compound 0.02 µM) was 0.986. The relative viability ([20]; first compound 0.2 µM) was 0.721, the relative viability ([20]; first compound 0.6325 µM) was 0.612 and the relative viability ([20]; first compound 2 µM) was 0.209. The relative viability ([21]; first compound 0.02 µM) was 0.94, the relative viability ([21]; first compound 0.2 µM) was 0.772 and the relative viability ([21]; first compound 0.6325 µM) was 0.798. For the same compound, the relative viability ([21]; first compound 2 µM) was 0.533.
`CN1CCN(CCOc2cc(OC3CCOCC3)c3c(Nc4c(Cl)ccc5c4OCO5)ncnc3c2)CC1` [Saracatinib] + Cc1cc(Nc2cc(N3CCN(C)CC3)nc(Sc3ccc(NC(=O)C4CC4)cc3)n2)n[nH]1 [Tozasertib] (partner 0.1 µM) was tested, and the relative viability ([1]; first compound 0.02 µM) was 0.977, the relative viability ([1]; first compound 0.2 µM) was 0.89 and the relative viability ([1]; first compound 0.6325 µM) was 0.821. The relative viability ([1]; first compound 2 µM) was 0.686, the relative viability ([2]; first compound 0.02 µM) was 0.358 and the relative viability ([2]; first compound 0.2 µM) was 0.323. It also gave a relative viability ([2]; first compound 0.6325 µM) of 0.309, a relative viability ([2]; first compound 2 µM) of 0.282 and a relative viability ([3]; first compound 0.02 µM) of 0.185. It also gave a relative viability ([3]; first compound 0.2 µM) of 0.207, a relative viability ([3]; first compound 0.6325 µM) of 0.155 and a relative viability ([3]; first compound 2 µM) of 0.174. It also gave a relative viability ([4]; first compound 0.02 µM) of 0.265, a relative viability ([4]; first compound 0.2 µM) of 0.256 and a relative viability ([4]; first compound 0.6325 µM) of 0.286. For the same compound, the relative viability ([4]; first compound 2 µM) was 0.271, the relative viability ([5]; first compound 0.02 µM) was 0.403 and the relative viability ([5]; first compound 0.2 µM) was 0.372. The relative viability ([5]; first compound 0.6325 µM) was 0.365, the relative viability ([5]; first compound 2 µM) was 0.24 and the relative viability ([6]; first compound 0.02 µM) was 0.117. The relative viability ([6]; first compound 0.6325 µM) was 0.074, the relative viability ([6]; first compound 2 µM) was 0.0412 and the relative viability ([7]; first compound 0.02 µM) was 0.39. For the same compound, the relative viability ([7]; first compound 0.2 µM) was 0.427, the relative viability ([7]; first compound 0.6325 µM) was 0.464 and the relative viability ([7]; first compound 2 µM) was 0.408. The relative viability ([8]; first compound 0.02 µM) was 0.722, the relative viability ([8]; first compound 0.2 µM) was 0.763 and the relative viability ([8]; first compound 0.6325 µM) was 0.83. It also gave a relative viability ([8]; first compound 2 µM) of 0.619, a relative viability ([9]; first compound 0.02 µM) of 0.431 and a relative viability ([9]; first compound 0.2 µM) of 0.31. The relative viability ([9]; first compound 0.6325 µM) was 0.407, the relative viability ([9]; first compound 2 µM) was 0.344 and the relative viability ([10]; first compound 0.02 µM) was 0.526. For the same compound, the relative viability ([10]; first compound 0.2 µM) was 0.528, the relative viability ([10]; first compound 0.6325 µM) was 0.644 and the relative viability ([10]; first compound 2 µM) was 0.459. It also gave a relative viability ([11]; first compound 0.02 µM) of 0.318, a relative viability ([11]; first compound 0.6325 µM) of 0.209 and a relative viability ([11]; first compound 2 µM) of 0.142. For the same compound, the relative viability ([12]; first compound 0.02 µM) was 0.432, the relative viability ([12]; first compound 0.2 µM) was 0.382 and the relative viability ([12]; first compound 0.6325 µM) was 0.461. The relative viability ([12]; first compound 2 µM) was 0.343, the relative viability ([13]; first compound 0.02 µM) was 0.655 and the relative viability ([13]; first compound 0.2 µM) was 0.715. It also gave a relative viability ([13]; first compound 0.6325 µM) of 0.5, a relative viability ([13]; first compound 2 µM) of 0.609 and a relative viability ([14]; first compound 0.02 µM) of 0.314. The relative viability ([14]; first compound 0.2 µM) was 0.368, the relative viability ([14]; first compound 0.6325 µM) was 0.268 and the relative viability ([14]; first compound 2 µM) was 0.262. It also gave a relative viability ([15]; first compound 0.02 µM) of 0.499, a relative viability ([15]; first compound 0.2 µM) of 0.608 and a relative viability ([15]; first compound 0.6325 µM) of 0.473. For the same compound, the relative viability ([15]; first compound 2 µM) was 0.496, the relative viability ([16]; first compound 0.02 µM) was 0.514 and the relative viability ([16]; first compound 0.2 µM) was 0.517. It also gave a relative viability ([16]; first compound 0.6325 µM) of 0.539, a relative viability ([16]; first compound 2 µM) of 0.518 and a relative viability ([17]; first compound 0.02 µM) of 0.743. For the same compound, the relative viability ([17]; first compound 0.2 µM) was 0.345, the relative viability ([17]; first compound 0.6325 µM) was 0.426 and the relative viability ([17]; first compound 2 µM) was 0.327. The relative viability ([18]; first compound 0.02 µM) was 0.118, the relative viability ([18]; first compound 0.2 µM) was 0.0883 and the relative viability ([18]; first compound 0.6325 µM) was 0.0859. For the same compound, the relative viability ([18]; first compound 2 µM) was 0.0757, the relative viability ([19]; first compound 0.02 µM) was 0.65 and the relative viability ([19]; first compound 0.2 µM) was 0.656. The relative viability ([19]; first compound 0.6325 µM) was 0.701, the relative viability ([19]; first compound 2 µM) was 0.716 and the relative viability ([20]; first compound 0.02 µM) was 0.603. It also gave a relative viability ([20]; first compound 0.2 µM) of 0.514, a relative viability ([20]; first compound 0.6325 µM) of 0.475 and a relative viability ([20]; first compound 2 µM) of 0.209. The relative viability ([21]; first compound 0.02 µM) was 0.868, the relative viability ([21]; first compound 0.2 µM) was 0.836 and the relative viability ([21]; first compound 0.6325 µM) was 0.872. The relative viability ([21]; first compound 2 µM) was 0.666.
